Assay results reported in patent US8414989B2, “Cyclodextrin compositions, articles, and methods” (Cellresin Technologies, LLC, priority 2011, dated 2013).

Legend:
[1] = Example 9: 1-MCP headspace release from UV-cured ink coated on PET film; type: physicochemical; details: 4 wt-% 1-MCP/c/α-CD UV ink on PET, 200 μL water
Description: ImTech UVBLK Series 912 cartridges were obtained from ImTech Inc. of Corvallis, Oreg. About 40 g of black ink was removed from the cartridge in which the ink was supplied. The ink was dried overnight in a closed container with 3 A molecular sieves to remove residual water contained in the ink. Then 17.5 g of the dried ink was transferred to a 70 mL roller mill jar filled with 50 g of 3 mm glass beads to which 0.875 g of 1-MCP/c/α-CD was added to the UV ink. The jar was sealed and rotated on a roller mill at 140 rpm for four hours. At the end of four hours of rolling to disperse the 1-MCP/c/α-CD, an additional 4.375 g of dry UV ink was added making a 4 wt-% 1-MCP/c/α-CD containing ink. Then the ink was decanted from the glass beads.
A rubber ink roller was used to coat a discontinuous, thin (nominally 3 μm), but uniform UV ink coating onto a 10 cm by 20 cm section of PET film (120 microns thick, obtained from the 3M Company of St. Paul, Minn.) in the manner described in Example 2. UV ink coated rectangles were passed by hand about 10 cm beneath a medium pressure mercury arc lamp operating at 79 watts per cm for 1.5 seconds exposure to the lamp. The cured sample was allowed to sit on a laboratory bench overnight ink side down.
A paper cutter was used to cut two samples, 20 cm^2 and 81 cm^2, from the cured ink coated PET film sheet. The samples were individually placed in 250 mL serum bottles. The bottles were then sealed with TEFLON® faced silicone septa. Then 200 μL of deionized water was injected into the bottle. […] After the injection of water into the bottle, 1-MCP was measured in the headspace using the analytical technique employed in Example 3.

[2] = Example 10: 1-MCP headspace release from inkjet printed multilayer and monolayer films; type: physicochemical; details: 250 mL bottle, 100 μL water
Excerpt: The ink containing 4 wt-% 1-MCP/c/α-CD from Example 9 was loaded back into the previously emptied cartridge. After refilling the cartridge, it was installed into a HP Inkjet 1600C printer (obtained from the Hewlett-Packard Company of Palo Alto, Calif.) and the calibration or head cleaning function was run. A medium density, black cross-hatch pattern obtained from Microsoft EXCEL software program 2003 (obtained from the Microsoft Corporation of Redman, Wash.) was used to format the entire printable page. The EXCEL pattern image was printed onto 3M, CG3460 Transparency Film (polyester film 120 microns thick for HP inkjet printers; obtained from the 3M Company of St. Paul, Minn.) using the dried, milled ink containing 4 wt-% 1-MCP/c/α-CD of Example 9. Immediately after printing, the printed side of the transparency film was overlaid with a 25 μm polyethylene film and then passed by hand about 10 cm beneath a medium pressure mercury arc lamp operating at 79 watts per cm for 3 seconds exposure to the lamp, with the polyethylene side facing the lamp. The methodology simulates a multilayer flexible-package where the inner surface of an outer, transparent, layer of the multilayer flexible material was printed (referred to as reverse printing). The printed surface was then laminated to other layers. The outside layer itself serves to protect the ink from abuse.
The following technique was designed to measure the permeability of 1-MCP, which was released from the reverse inkjet printed 3M Transparency Film, through PE film as the “inner layer” of a multilayer produce package. In a multilayer produce package, as the humidity rises inside the package by respiration of fresh agricultural products, the water vapor reaches a concentration that allows it to diffuse to the outside of the package. In this example, water also diffuses through the ink layer containing 1-MCP/c/α-CD. The reverse printed ink on the PET film releases 1-MCP which diffuses through the PE film into the interior of package (headspace) under a gradient of low 1-MCP concentration inside the bottle headspace and high 1-MCP concentration within the multilayer structure.
Using a paper cutter, a 5.5 cm by 16 cm rectangle (88 cm^2) was cut from the multilayer structure of the printed, cured ink on the PET sheet overlaid with PE. The rectangle was placed in a 250 mL serum bottle. The bottle was then sealed with a TEFLON® faced silicone septa. Then 100 μL of deionized water was injected into the bottle. […] Bottle headspace was analyzed at 0.17, 0.5, 1, 2, 4, and 24 hours after the injection of water using the technique employed in Example 3. The results in Table 8 illustrate 1-MCP headspace concentration as a function of time for the “multilayer” film.
A second piece of PET transparency film was printed as in Example 9 except that the transparency film was not covered with PE film; the printed ImTech UVBLK Series 912 ink was cured on the PET film surface using a medium pressure mercury arc lamp operating at 79 watts per cm in the same manner as for Example 9. Then, using a paper cutter, a 1.2 cm by 16 cm rectangle (19 cm^2) was cut from the sheet. The rectangle was placed in 250 mL serum bottle. The bottle was then sealed with a TEFLON® faced silicone septa. Then 100 μL of deionized water was injected into the bottle. […] Bottle headspace was analyzed at 0.17, 0.5, 1, 2, 4, and 24 hours after the injection of water using the technique employed in Example 3. The headspace concentration of 1-MCP as a function of time is also reported in Table 9 for the “monolayer” film.

## CC1=CC1 [1-MCP, 1-methylcyclopropene]
[1]; 20 cm^2, 250 mL bottle, 0.5 hours
  Headspace concentration of 1-MCP: <0.01 ppm (v/v)
[1]; 20 cm^2, 250 mL bottle, 1 hour
  Headspace concentration of 1-MCP: <0.01 ppm (v/v)
[1]; 20 cm^2, 250 mL bottle, 2 hours
  Headspace concentration of 1-MCP: 0.01 ppm (v/v)
[1]; 20 cm^2, 250 mL bottle, 4 hours
  Headspace concentration of 1-MCP: 0.04 ppm (v/v)
[1]; 20 cm^2, 250 mL bottle, 8 hours
  Headspace concentration of 1-MCP: 0.05 ppm (v/v)
[1]; 20 cm^2, 250 mL bottle, 27 hours
  Headspace concentration of 1-MCP: 0.09 ppm (v/v)
[1]; 20 cm^2, 250 mL bottle, 170 hours
  Headspace concentration of 1-MCP: 0.76 ppm (v/v)
[1]; 81 cm^2, 250 mL bottle, 0.5 hours
  Headspace concentration of 1-MCP: <0.01 ppm (v/v)
[1]; 81 cm^2, 250 mL bottle, 1 hour
  Headspace concentration of 1-MCP: 0.05 ppm (v/v)
[1]; 81 cm^2, 250 mL bottle, 2 hours
  Headspace concentration of 1-MCP: 0.18 ppm (v/v)
[1]; 81 cm^2, 250 mL bottle, 21 hours
  Headspace concentration of 1-MCP: 0.51 ppm (v/v)
[1]; 81 cm^2, 250 mL bottle, 48 hours
  Headspace concentration of 1-MCP: 0.60 ppm (v/v)
[2]; 19 cm^2 Monolayer (printed PET, no PE film), 0.17 hours
  Headspace concentration of 1-MCP: 0.50 ppm (v/v)
[2]; 19 cm^2 Monolayer (printed PET, no PE film), 0.5 hours
  Headspace concentration of 1-MCP: 0.52 ppm (v/v)
[2]; 19 cm^2 Monolayer (printed PET, no PE film), 1 hour
  Headspace concentration of 1-MCP: 0.50 ppm (v/v)
[2]; 19 cm^2 Monolayer (printed PET, no PE film), 2 hours
  Headspace concentration of 1-MCP: 0.51 ppm (v/v)
[2]; 19 cm^2 Monolayer (printed PET, no PE film), 4 hours
  Headspace concentration of 1-MCP: 0.52 ppm (v/v)
[2]; 19 cm^2 Monolayer (printed PET, no PE film), 24 hours
  Headspace concentration of 1-MCP: 0.49 ppm (v/v)
[2]; 88 cm^2 Multilayer (inkjet printed PET overlaid with 25 μm PE), 0.17 hours
  Headspace concentration of 1-MCP: 0.25 ppm (v/v)
[2]; 88 cm^2 Multilayer (inkjet printed PET overlaid with 25 μm PE), 0.5 hours
  Headspace concentration of 1-MCP: 0.46 ppm (v/v)
[2]; 88 cm^2 Multilayer (inkjet printed PET overlaid with 25 μm PE), 1 hour
  Headspace concentration of 1-MCP: 1.1 ppm (v/v)
[2]; 88 cm^2 Multilayer (inkjet printed PET overlaid with 25 μm PE), 2 hours
  Headspace concentration of 1-MCP: 1.5 ppm (v/v)
[2]; 88 cm^2 Multilayer (inkjet printed PET overlaid with 25 μm PE), 4 hours
  Headspace concentration of 1-MCP: 3.2 ppm (v/v)
[2]; 88 cm^2 Multilayer (inkjet printed PET overlaid with 25 μm PE), 24 hours
  Headspace concentration of 1-MCP: 8.3 ppm (v/v)
